{"source": "patent US20210038682A1", "about": "“MODULATORS OF SMALL CONDUCTANCE CALCIUM ACTIVATED K+ CHANNELS AND PHARMACEUTICAL COMPOSITIONS FOR USE IN THE TREATMENT OF LESIONAL VESTIBULAR DISORDERS” (priority 2018, published 2021)", "key": {"UVN adult female rats [1]": {"system": "UVN adult female rats", "assay": "Subjective scoring of vestibular syndrome severity in the rat unilateral vestibular neurectomy model", "assay_type": "in vivo", "procedure": "(§1) A unilateral vestibular neurectomy (UVN) was performed on adult female rats in order to induce unilateral vestibulopathy. Then, the small conductance calcium activated K^+ channels antagonists apamin, AG525E1 and NS8593 were administered intraperitoneally to UVN animals in double blind conditions once a day for 4 days, i.e. during the acute phase of the syndrome. It was then assessed the severity of posturo-locomotor deficits using appropriate behavior tests for 10 days after UVN. Subjective scoring of the vestibular syndrome was carried out according to the method previously published (Péricat et al. 2017; Tighilet et al. 2017). […]"}, "UVN adult female rats [2]": {"system": "UVN adult female rats", "assay": "Posturo-locomotor behavior tests (velocity, distance, immobility, meander) in the rat unilateral vestibular neurectomy model", "assay_type": "in vivo", "settings": "AG525E1 10 mg/kg i.p., from day 1", "procedure": "as §1"}, "[3]": {"settings": "systemic administration; cited from earlier work"}}}
{"smiles": "COc1cc2c(cc1OC)C(CCCC1c3cc(OC)c(OC)cc3CCN1C)N(C)CC2", "note": "(stereo not shown) [AG525E1, 1,1′-(propane-1,3-diyl)-bis-(6,7-dimethoxy-2-methyl-1,2,3,4-tetrahydroisoquinoline)]", "values": [{"measurement": "Vestibular syndrome severity", "setting": "UVN adult female rats [1]; AG525E1 10 mg/kg i.p. once a day for 4 days, at day 1, p<0.05 vs negative control", "result": "significant decreased vestibular syndrome"}, {"measurement": "Immobility time", "setting": "UVN adult female rats [2]", "result": "tendency to reduce immobility time"}]}
{"smiles": "Cl.c1ccc2c(c1)CCC[C@H]2Nc1nc2ccccc2[nH]1", "note": "[NS8593, N-[(1R)-1,2,3,4-Tetrahydro-1-naphthalenyl]-1H-benzimidazol-2-amine hydrochloride]", "values": [{"measurement": "Vestibular syndrome severity", "setting": "UVN adult female rats [1]; NS8593 30 mg/kg i.p. once a day for 4 days, at day 1 and day 2, p<0.05 vs negative control", "result": "significant decreased vestibular syndrome"}]}
{"smiles": "CC(C)C[C@@H]1NC(=O)[C@H](C)NC(=O)[C@H]([C@@H](C)O)NC(=O)[C@H](CCC(=O)O)NC(=O)[C@@H]2CCCN2C(=O)[C@H](C)NC(=O)[C@H](CCCCN)NC(=O)[C@@H]2CSSC[C@@H](C(=O)N[C@@H](CCC(N)=O)C(=O)N[C@@H](CCC(N)=O)C(=O)N[C@@H](Cc3cnc[nH]3)C(N)=O)NC(=O)[C@H](CCCNC(=N)N)NC(=O)[C@H](CCCNC(=N)N)NC(=O)[C@H](C)NC(=O)[C@H](CSSC[C@H](N)C(=O)N[C@@H](CC(N)=O)C(=O)N2)NC1=O", "note": "[apamin]", "values": [{"measurement": "Blood-brain barrier crossing", "setting": "[3]", "result": "cross the blood-brain barrier"}]}
